Test results reported in paper PMC7275090, “Mode of action of teixobactins in cellular membranes” (Nature Communications, 2020).
Bridge positions count the residues as written; N and C are the ends. Square brackets hold non-standard residues; d marks the D form. Ends that are not written are not given here. d(aIle) = CC[C@H](C)[C@@H](N)C(=O)O; dNMeF = CN[C@H](Cc1ccccc1)C(=O)O

Assay: ssNMR 15N T1rho relaxation (dynamics of bound teixobactin), Lys-Lipid II
Settings: for Bulk 15N R1rho / Bulk 15N T1rho: 950 MHz, 60 kHz MAS
Protocol: Relaxation studies: ^1H-detected ^15N T1rho relaxation experiments were carried out at 950 and 700 MHz magnetic field, respectively, using 60 kHz MAS[51]. The ^15N transverse magnetization decay was probed with a ^15N spinlock field of 17.5 kHz. For the bulk, we measured the intensity of the most intense signal at ~8.80 ^1H ppm. T1rho trajectories were fit to single exponentials.
Lipid I or II-doped multi-laminar vesicle preparations: DOPC or DOPG lipids were mixed with Lipid I or II in 1:1 MeOH:CHCl3 at the final Lipid I or II molar ratio (0–4 mol%/mol). The mixtures were dried and the lipid films were hydrated by vortexing with 2 mL of a teixobactin solution in 40 mM phosphate, 25 mM NaCl, pH 7.0.
SSNMR samples: MLVs were collected by centrifugation (20,000×g) and loaded into ssNMR rotors. For 3.2 mm rotors, we used 800 nmol of antibiotic with unlabelled Lipid II or I, while we used 400 nmol with labelled Lipid II. For 1.3 mm rotors, samples contained 200 nmol of antibiotic for unlabelled Lipid II or I, while we used 100 nmol for labelled Lipid II. For all ssNMR samples, we used 4 mol%/mol Lipid II or I in the MLVs.

[1] = bound to Lys-LII in DOPC liposomes, 950 MHz/60 kHz MAS
[2] = bound to Lys-Lipid II in DOPC (Lys-LII PC)
[3] = bound to Lys-Lipid II in DOPG (Lys-LII_PG)

D-Arg4-Leu10-teixobactin ([dNMeF]IS[dR][d(aIle)]IS[dT]ALI; ester 8-C; also: 13C,15N labels at Ile2, Ser3, Ile6, Ser7 and one Ala (residue not fully stated)) [[R4L10]-teixobactin, teixobactin analogue in which D-Gln4 and L-allo-enduracididine10 are replaced by D-Arg4 and L-Leu10]
mobility of Lipid II-bound peptide with increasing anionic membrane charge (DOPG vs DOPC, ssNMR relaxation): stark increase in mobility | 15N R1rho, Ala9 [1]: 8.95 s⁻¹ | 15N R1rho, Ile2 [1]: 8.49 s⁻¹ | 15N R1rho, Ile6 [1]: 7.70 s⁻¹ | 15N R1rho, Leu10 [1]: 10.67 s⁻¹ | 15N R1rho, Ser3 [1]: 7.40 s⁻¹ | 15N R1rho, Ser7 [1]: 6.84 s⁻¹ | 15N T1rho, Ala9 [1]: 111.70 ms | 15N T1rho, Ile2 [1]: 117.80 ms | 15N T1rho, Ile6 [1]: 129.90 ms | 15N T1rho, Leu10 [1]: 93.72 ms | 15N T1rho, Ser3 [1]: 135.20 ms | 15N T1rho, Ser7 [1]: 146.10 ms | Bulk 15N R1rho [2]: 9.46 s⁻¹ | Bulk 15N T1rho [2]: 105.70 ms | Bulk 15N R1rho [3]: 29.61 s⁻¹ | Bulk 15N T1rho [3]: 33.77 ms
